Measured values: ChEMBL document CHEMBL3046274, “Toxicity of imidacloprid to developmental stages of Rhynchophorus ferrugineus (Curculionidae: Coleoptera): Laboratory and field tests” (Crop Prot, 2006)
Activity calls are given as the source filed them. No cut-off for these calls is given here.

Assays:
[1] = tested on: Rhynchophorus ferrugineus; test: Pesticidal activity against Rhynchophorus ferrugineus (red palm weevil) larvae assessed as mortality at 6 ppm, po at 48 hr post-treatment relative to control; format: functional
[2] = tested on: Rhynchophorus ferrugineus; test: Contact toxicity against Rhynchophorus ferrugineus (red palm weevil) adults assessed as time required for 100% mortality at 2.5 ml/l for 2 min; format: functional
[3] = tested on: Rhynchophorus ferrugineus; test: Contact toxicity against Rhynchophorus ferrugineus (red palm weevil) adults assessed as time required for 50% reversible knockdown at 2.5 ml/l for 2 min; format: functional
[4] = tested on: Rhynchophorus ferrugineus; test: Contact toxicity against Rhynchophorus ferrugineus (red palm weevil) adults assessed as time required for 100% reversible knockdown at 1.5 ml/l for 5 min; format: functional
[5] = tested on: Rhynchophorus ferrugineus; test: Pesticidal activity against Rhynchophorus ferrugineus (red palm weevil) cocoons assessed as time required for total mortality at 1.5 ml/l administered by dipping for 30 secs; format: functional
[6] = tested on: Rhynchophorus ferrugineus; test: Pesticidal activity against Rhynchophorus ferrugineus (red palm weevil) larvae assessed as mortality at 1 ppm, po at 90 hr post-treatment relative to control; format: functional
[7] = tested on: Rhynchophorus ferrugineus; test: Pesticidal activity against Rhynchophorus ferrugineus (red palm weevil) larvae assessed as mortality at 4 ppm, po at 48 hr post-treatment relative to control; format: functional
[8] = tested on: Rhynchophorus ferrugineus; test: Pesticidal activity against Rhynchophorus ferrugineus (red palm weevil) cocoons assessed as time required for total mortality at 3.5 ml/l administered by dipping for 30 secs; format: functional
[9] = tested on: Rhynchophorus ferrugineus; test: Pesticidal activity against Rhynchophorus ferrugineus (red palm weevil) larvae assessed as mortality at 4 ppm, po at 72 hr post-treatment relative to control; format: functional
[10] = tested on: Rhynchophorus ferrugineus; test: Pesticidal activity against Rhynchophorus ferrugineus (red palm weevil) cocoons assessed as time required for total mortality at 1.5 ml/l administered by dipping for 5 secs; format: functional
[11] = tested on: Rhynchophorus ferrugineus; test: Pesticidal activity against Rhynchophorus ferrugineus (red palm weevil) larvae assessed as mortality at 0.5 ppm, po at 114 hr post-treatment relative to control; format: functional
[12] = tested on: Rhynchophorus ferrugineus; test: Pesticidal activity against Rhynchophorus ferrugineus (red palm weevil) larvae assessed as mortality at 1 ppm, po at 48 hr post-treatment relative to control; format: functional
[13] = tested on: Rhynchophorus ferrugineus; test: Pesticidal activity against Rhynchophorus ferrugineus (red palm weevil) cocoon assessed as mortality of emerged adult at low concentration administered by dipping for 3 min measured up to 1 week after emergence; format: functional, organism-based
[14] = tested on: Rhynchophorus ferrugineus; test: Pesticidal activity against adult Rhynchophorus ferrugineus (red palm weevil) assessed as time required for 100% mortality at 2.5 ml/l administered topically; format: functional
[15] = tested on: Rhynchophorus ferrugineus; test: Contact toxicity against Rhynchophorus ferrugineus (red palm weevil) adults assessed as time required for 50% mortality at 1.5 ml/l for 5 min; format: functional
[16] = tested on: Rhynchophorus ferrugineus; test: Contact toxicity against Rhynchophorus ferrugineus (red palm weevil) adults assessed as time required for 50% reversible knockdown at 1.5 ml/l for 5 min; format: functional
[17] = tested on: Rhynchophorus ferrugineus; test: Pesticidal activity against Rhynchophorus ferrugineus (red palm weevil) cocoon assessed as mortality at 1 ppm administered by dipping for 3 min measured at 18 hr post-treatment relative to control; format: functional
[18] = tested on: Rhynchophorus ferrugineus; test: Pesticidal activity against Rhynchophorus ferrugineus (red palm weevil) larvae assessed as mortality at 1000 ppm administered topically at 48 hr post-treatment; format: functional
[19] = tested on: Rhynchophorus ferrugineus; test: Contact toxicity against Rhynchophorus ferrugineus (red palm weevil) adults assessed as time required for 100% mortality at 3.5 ml/l for 2 min; format: functional

`O=[N+]([O-])/N=C1\NCCN1Cc1ccc(Cl)nc1` [IMIDACLOPRID] showed an Activity [1] of 100%, a Time [2] of 13.1 days and a Time [3] of 1.1 days. For the same molecule, the Time [4] was 4.2 days, the Time [5] was 9.6 days and the Activity [6] was 100%. It also gave an Activity [7] of 100%, a Time [8] of 3.2 days and an Activity [9] of 100%. For the same molecule, the Time [10] was 14.5 days, the Activity [11] was 100% and the Activity [12] was 38.9%. For the same molecule, the Activity [13] was “inactive”, the Time [14] was 8.8 days and the Time [15] was 4.3 days. The Time [16] was 3.2 days, the Activity [17] was 0% and the Activity [18] was 100%. For the same molecule, the Time [19] was 8.1 days.
